Where a name gives a salt, the structure may show the parent alone.
Experiments:
Female CFLP mice = test: Hypoglycaemic activity: subcutaneous glucose load, area under blood glucose curve; assay type: in vivo; settings: female CFLP mice fasted 24 hours; compound orally 30 minutes before glucose 1 g/kg s.c.; 2 hour period; versus control mice given water; dose differs per compound (Dose µmol/kg)
Procedure: Female CFLP mice, weighing approximately 25 g, were fasted for 24 hours prior to the study. The compounds under study were administered orally as an aqueous solution to each of 6 mice. 30 minutes later a blood sample (20 µl) was obtained from the tail for the analysis of blood glucose. Immediately after taking this blood sample, glucose (1 g/kg body weight) was administered subcutaneously to each mouse. 6 mice were given water as a control. Blood samples were then obtained from each mouse at 30 minute intervals for 120 minutes.
Compounds that produced a significant (p<0.05) reduction of blood glucose, compared with control mice given water, at any time interval, were considered active. The area under the blood glucose curve over the 2 hour period after the administration of the glucose was calculated for each compound and compared with the value for control animals.

Male Sprague-Dawley rats = test: Effect on energy expenditure of rats (oxygen consumption, oral dosing); assay type: in vivo; settings: deprived of food, p.o. in water, percentage of the rate of energy expenditure of the rats dosed with water, dose differs per compound (Dose mg/kg p.o.); for Mean Energy Expenditure (0-3h): 0-3h after dosing; for Mean Energy Expenditure (0-21h): 0-21h after dosing
Procedure: Male Sprague-Dawley rats each weighing between 170-200 g were deprived of food for 16 hours before, and during the experiment. Water was provided ad lib at all times. The compounds were administered orally in water to 3 or 4 rats. A further 4 rats were dosed orally with water. The rats were placed in boxes through which air was drawn and the oxygen content of the air leaving the boxes was measured. The energy expenditure of the rats was calculated for 3 hours and for 21 hours after dosing from the volume of air leaving the boxes and its oxygen content, following the principles described by J.B. de V. Weir, J. Physiol. (London) 109, 1-9 (1949). The results are expressed as a percentage of the rate of energy expenditure of the rats dosed with water.

Female CD1 mice = test: Effect on energy expenditure of mice (oxygen consumption, oral dosing); assay type: in vivo; settings: p.o. in water, percentage of the rate of energy expenditure of the mice dosed with water, dose differs per compound (Dose mg/kg p.o.); for Mean Energy Expenditure (0-3h): 0-3h after dosing; for Mean Energy Expenditure (0-21h): 0-21h after dosing
Procedure: Female CD1 mice each weighing approximately 24 g were given food and water ad lib before and during the experiment. The compounds were dissolved in water and these solutions were administered orally to each of 12 mice. A further 12 mice were dosed orally with water. The mice were placed in groups of threes in boxes through which air was drawn and the oxygen content of the air leaving the boxes was measured. The energy expenditure of the mice was calculated for 3 and 21 hours after dosing from the volume of air leaving the boxes and its oxygen content, following the principles described by J.B. de V. Weir, J. Physiol. (London) 109, 1-9 (1949). The results are expressed as a percentage of the rate of energy expenditure of the mice dosed with water.

Isolated Rat Atria = test: Effect of compounds on isolated rat atria (rate of right atrium, tension of left atrium); assay type: cell-based, Sprague-Dawley male rats; settings: Krebs solution 32°C, up to 3x10-^5M; for effect on tension (electrically paced left atrium): isolated rat left atrium; for effect on rate (spontaneously beating right atrium): isolated rat right atrium
Procedure: Sprague-Dawley male rats (300-400 g) are killed and the right and left atria dissected out independently and mounted on a combined tissue holder/electrode. The tissues are then immersed in a glass bath containing Krebs solution maintained at 32 °C. The rate of the spontaneously beating right atrium (via an isometric tranducer and a ratemeter) and the tension of the electrically paced left atrium (via an isometric transducer) are recorded on an M19 chart recorder.
After an initial stabilization period, the tissues are exposed to a maximal concentration of isoprenaline (10^-6M). The tissues are then washed several times until rate and tension return to baseline level. A dose-response curve to the test compound is then carried out.

Female BALB/c mice = test: Anti-obesity activity: weight of parametrial fat pads after 3 days of compound in the diet; assay type: in vivo; settings: compound in diet for 3 days, dose differs per compound (Dose mg/kg diet), mean of 9 values
Procedure: Female BALB/c mice were trained to feed on powdered oxoid for 1 week. They were then housed in threes and the compound under study was added to the diet for 3 days. Food was removed at 09.00h and the mice were killed at 11.00h. The parametrial fat pads were weighed as pairs. The result is a mean of 9 values.

| Compound | % Reduction in Area under Blood Glucose Curve (Female CFLP mice) | Mean Energy Expenditure (0-3h) (Male Sprague-Dawley rats) | Mean Energy Expenditure (0-21h) (Male Sprague-Dawley rats) | Mean Energy Expenditure (0-3h) (Female CD1 mice) | Mean Energy Expenditure (0-21h) (Female CD1 mice) | effect on tension (electrically paced left atrium) (Isolated Rat Atria) | effect on rate (spontaneously beating right atrium) (Isolated Rat Atria) | Percentage reduction in weight of parametrial fat pads compared with controls (Female BALB/c mice) |
| --- | --- | --- | --- | --- | --- | --- | --- | --- |
| COC(=O)c1ccc(C[C@@H](C)N(C[C@H](O)COc2ccccc2)C[C@H](O)COc2ccccc2)cc1 [Example 1, Methyl 4-[(R)-2-[bis-[(S)-2-hydroxy-3-phenoxypropyl]amino]propyl]benzoate] | 28% | 115 percentage | 114 percentage | 132 percentage | 107 percentage | no effect | no effect | – |
| COC(=O)c1ccc(C[C@@H](C)N(C[C@@H](O)COc2ccccc2)C[C@@H](O)COc2ccccc2)cc1 [Example 2, Methyl 4-[(R)-2-[bis-[(R)-2-hdroxy-3-penoxypropyl]amino]propyl]benzoate, fumarate] | – | 114 percentage | 100 percentage | 122 percentage | 97 percentage | – | – | – |
| CNC(=O)c1ccc(C[C@@H](C)N(C[C@H](O)COc2ccccc2)C[C@H](O)COc2ccccc2)cc1 [Example 3, N-Methyl 4-[(R)-2-[bis-[(S)-2-hydrpxy-3-phenoxypropyl]amino]propyl]benzamide, fumarate] | 12% | 114 percentage | 100 percentage | 133 percentage | 109 percentage | – | – | – |
| COC(=O)c1ccc(C[C@@H](C)N(C[C@@H](O)COc2ccccc2)C[C@H](O)c2ccccc2)cc1 [Example 5, Methyl 4-[(R)-2-[N-[(R)-2-hydroxy-2-phenethyl]-N-[(R)-2-hydroxy-3-phenoxypropyl]amino]propyl]benzoate hydrochloride] | 38% | – | – | 136 percentage | 112 percentage | – | – | – |
| CNC(=O)c1ccc(C[C@@H](C)N(C[C@H](O)COc2ccccc2)C[C@H](O)c2ccccc2)cc1 [Example 6, N-Methyl 4-[(R)-2-[N'-[(R)-2-hydroxy-2-phenethyl]-N'-[(S)-2-hydroxy-3-phenoxypropyl]amino]propyl]benzamide] | 13% | 112 percentage | 108 percentage | 126 percentage | 110 percentage | – | – | – |
| CNC(=O)c1ccc(C[C@@H](C)N(C[C@@H](O)COc2ccccc2)C[C@H](O)c2ccccc2)cc1 [Example 7, N-Methyl 4-[(R)-2-[N'-[(R)-2-hydroxy-2-phenethyl]-N'-[(R)-2-hydroxy-3-phenoxypropyl]amino]propyl]benzamide] | 18% | – | – | 119 percentage | 102 percentage | – | – | – |
| COC(=O)c1ccc(C[C@@H](C)N(CC(O)c2cc(Cl)c(N)c(Cl)c2)C[C@H](O)COc2ccccc2)cc1 (stereo partly drawn) [Example 10, Methyl 4-[(R)-2-[N-[2-(4-amino-3,5-dichlorophenyl]-2-hydroxyethyl]-N-[(S)-2-hydroxy-3-phenoxypropyl]amino]propyl benzoate] | 31% | – | – | 121 percentage | 122 percentage | – | – | – |
| C[C@H](CCc1ccc(C(N)=O)cc1)N(C[C@H](O)COc1ccccc1)C[C@H](O)c1ccccc1 [Example 12, 4-[(R)-3-[N-(R)-2-Hydroxy-2-phenethyl-N-[(S)-2-hydroxy-3-phenoxypropyl]amino]butyl]benzamide] | 28% | 139 percentage | 113 percentage | 111 percentage | 103 percentage | – | – | – |
| Br.C[C@H](CCc1ccc(C(N)=O)cc1)N(C[C@H](O)COc1ccccc1)C[C@H](O)COc1ccccc1.O.O [Example 13, 4-[(R)-3-[Bis-[(S)-2-hydroxy-3-phenoxypropyl]amino]butyl]-benzamide, hydrobromide, dihydrate] | 15% | 108 percentage | 106 percentage | 103 percentage | 105 percentage | – | – | – |
| C[C@H](Cc1ccc(OCC(N)=O)cc1)N(C[C@H](O)COc1ccccc1)C[C@H](O)COc1ccccc1 [Example 14, 4-[(R)-2-[Bis-[(S)-2-hydroxy-3-phenoxypropyl]amino]propyl] phenoxyacetamide, hydrochloride] | 20% | 127 percentage | 117 percentage | 140 percentage | 112 percentage | no effect | no effect | – |
| C[C@H](Cc1ccc(OCC(N)=O)cc1)N(C[C@H](O)COc1ccccc1)C[C@H](O)c1ccccc1 [Example 16, 4-[(R)-2-[N-[(R)-2-Hydroxy-2-phenethyl]-N-[(S)-2-hydroxy-3-phenoxypropyl]amino]propyl]phenoxyacetamide, hydrochloride, hemihydrate] | – | 141 percentage | 119 percentage | 151 percentage | 113 percentage | – | – | 27 Percentage |
| CCOC(=O)COc1ccc(C[C@@H](C)N(C[C@H](O)COc2ccccc2)C[C@H](O)COc2ccccc2)cc1 [Example 17, Ethyl 4-[(R)-2-[bis-[(S)-2-hydroxy-3-phenoxypropyl]amino]propyl]phenoxyacetate, hydrochloride, hemihydrate] | – | 120 percentage | 105 percentage | – | – | – | – | 37 Percentage |
| C[C@H](Cc1ccc(OCC(N)=O)cc1)N(C[C@H](O)COc1ccccc1)C[C@H](O)c1cccc(Cl)c1 [Example 19, 4-[(R)-2-[N-[(R)-2-(3-Chlorophenyl)-2-hydroxyethyl]-N-[(S)-2-hydroxy-3-phenoxypropyl]amino]propyl]phenoxyacetamide, hydrochloride, hemihydrate] | 43% | 120 percentage | 106 percentage | – | – | – | – | – |
| CCOC(=O)COc1ccc(C[C@@H](C)N(C[C@@H](O)COc2ccccc2)C[C@H](O)c2ccccc2)cc1 [Example 23, Ethyl 4-[(R)-2-[N-[(R-2-hydroxy-2-phenethyl]-N-[(R)-2-hydroxy-3-phenoxypropyl]amino]propyl]phenoxyacetate, hydrochloride] | – | 129 percentage | 111 percentage | – | – | – | – | 31 Percentage |
| CCOC(=O)COc1ccc(C[C@@H](C)N(CC(O)c2cc3ccccc3o2)C[C@H](O)COc2ccccc2)cc1.Cl (stereo partly drawn) [Example 26, Ethyl 4-[(R)-2-[N-[2-(2-benzofuranyl)-2-hydroxyethyl]-N-[(S)-2-hydroxy-3-phenoxypropyl]amino]propyl]phenoxyacetate, hydrochloride] | 34% | 142 percentage | 117 percentage | – | – | – | – | – |
